Values quoted from earlier work in patent US7189798B2, “Composition containing mixture of dihydroxybutane sulfonates” (Eastman Chemical Company, priority 2001, dated 2007).

Settings: in vivo

OC[C@H]1O[C@@H]2O[C@H]3[C@H](O)[C@@H](O)[C@@H](O[C@H]4[C@H](O)[C@@H](O)[C@@H](O[C@H]5[C@H](O)[C@@H](O)[C@@H](O[C@H]6[C@H](O)[C@@H](O)[C@@H](O[C@H]7[C@H](O)[C@@H](O)[C@@H](O[C@H]8[C@H](O)[C@@H](O)[C@@H](O[C@H]1[C@H](O)[C@H]2O)O[C@@H]8CO)O[C@@H]7CO)O[C@@H]6CO)O[C@@H]5CO)O[C@@H]4CO)O[C@@H]3CO [β-CD, β-cyclodextrin]
Renal and liver damage after parenteral administration: cause renal and liver damage
